Earlier results as cited in patent publication US9259392B2, “Cochleate compositions directed against expression of proteins” (Rutgers, The State University of New Jersey, priority 2003, dated 2016).

Tests used:
pathogenic fungi = conditions: cited from earlier work
[1] = biological target: Aspergillus fumigatus H^+-ATPase; conditions: cited from earlier work

| SMILES | antifungal activity (pathogenic fungi) | IC50 [1] [nM] |
| --- | --- | --- |
| CCN1CCC(O)(C=Cc2ccc(Cl)cc2)C(C(=O)C=Cc2ccc(Cl)cc2)C1.Cl (centres unmarked) [NC1175, 3-[3-(4-chlorophenyl)-2-propenoyl]-4-[2-(4-chlorophenyl)vinylene]-1-ethyl-4-piperidinol hydrochloride] | antifungal activity against a wide spectrum of pathogenic fungi |  |
| [O]=[V]([OH])([OH])[OH] [orthovanadate] |  | ~800 |
